The values below come from US9120749B2, “Quinoline derivatives and MELK inhibitors containing the same” (ONCOTHERAPY SCIENCE, INC., priority 2010, dated 2015).

Where a name gives a salt, the structure may show the parent alone. Read-outs that look alike come from different tables or passages of the source.

Experiment [1] concerns T47D cells. The experiment is described as follows: Cell-based assay: anti-proliferative activity, Cell Counting Kit-8, 72 hours (T47D). In a few lines:
(§1)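 T47D, A549 and BT-549 cells, with MELK-negative HT-1197 as control (MELK status checked by western blot), seeded at 2,000–3,000 cells/well. Growth measured by CCK-8 72 hours after inhibitor exposure; IC50 values calculated.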
On the technique in general: Tetrazolium assays rely on reduction of a dye to a coloured formazan, in cell work by metabolically active cells.

Experiment [2] deals with DU4475 cells. The experiment is described as follows: Cell-based assay: anti-proliferative activity, Cell Counting Kit-8, 72 hours (DU4475).
The test system of experiment [3] is 22Rv1 cells. The experiment in a line: Cell-based assay: anti-proliferative activity, Cell Counting Kit-8, 72 hours (22Rv1).
Experiment [4] deals with HT-1197 cells. The experiment in a line: Cell-based assay: anti-proliferative activity, Cell Counting Kit-8, 72 hours (HT-1197, negative control without MELK expression). Particulars: HT1197 cells (negative control), 72 hours. In a few lines: as §1
Experiment [5] has as its system A549 cells. The experiment in a line: Cell-based assay: anti-proliferative activity, Cell Counting Kit-8, 72 hours (A549). The following applies: 72 hours. Summed up:
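Cell Counting Kit-8 read-out of A549 growth after 72 hours of inhibitor exposure, cells plated in 96-well format. Values reported as IC50.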

Experiment [6] concerns the target MELK (Homo sapiens, UniProt Q14680). The experiment is described as follows: Kinase assay: MELK activity, phosphorylation of FITC-labeled histone H3 peptide measured by IMAP fluorescence polarization. The following applies: MELK kinase assay, IMAP fluorescence polarization, 50 micro-M ATP; read-out: IC50 (μM) (kinase assay). The experiment is classed as biochemical. In a few lines: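 A FITC-labelled histone H3 peptide served as substrate, with compounds serially diluted to 1% DMSO final. Reactions were stopped with three volumes of IMAP progressive binding solution. After 0.5 h at room temperature, fluorescence polarization was read.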

MELK, sequence (Q14680 whole entry, looked up): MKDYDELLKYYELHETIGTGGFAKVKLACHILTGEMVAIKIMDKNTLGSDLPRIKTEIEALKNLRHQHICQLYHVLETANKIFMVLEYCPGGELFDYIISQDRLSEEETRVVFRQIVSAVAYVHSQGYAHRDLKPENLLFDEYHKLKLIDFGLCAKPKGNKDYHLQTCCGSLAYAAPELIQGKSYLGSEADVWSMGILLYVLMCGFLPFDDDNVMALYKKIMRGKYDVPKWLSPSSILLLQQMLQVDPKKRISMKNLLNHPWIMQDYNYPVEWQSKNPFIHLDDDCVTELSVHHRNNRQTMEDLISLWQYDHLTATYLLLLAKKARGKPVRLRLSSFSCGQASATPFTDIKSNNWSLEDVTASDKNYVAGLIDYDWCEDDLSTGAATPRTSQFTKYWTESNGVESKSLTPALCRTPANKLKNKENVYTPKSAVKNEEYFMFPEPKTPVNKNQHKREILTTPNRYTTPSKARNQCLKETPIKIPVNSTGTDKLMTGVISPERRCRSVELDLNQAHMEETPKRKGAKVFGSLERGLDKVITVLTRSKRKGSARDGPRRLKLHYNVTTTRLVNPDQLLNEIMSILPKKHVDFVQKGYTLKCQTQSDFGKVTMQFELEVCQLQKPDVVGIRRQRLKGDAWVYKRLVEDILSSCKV

In general, IC50 refers to the midpoint of a concentration-inhibition curve. As to `CN(C)C1CCN(c2ccc(Nc3c(S(C)(=O)=O)cnc4ccc(-c5cc(F)c(O)c(Cl)c5)cc34)cn2)C1` (stereo not drawn) [Example 889, 2-chloro-4-(4-((6-(3-(dimethylamino)pyrrolidin-1-yl)pyridin-3-yl)amino)-3-(methylsulfonyl)quinolin-6-yl)-6-fluorophenol hydrochloride], the 50% inhibitory concentration (IC50) in experiment [1] (Homo sapiens, T47D, 72 h) came to 1.5 µM; in experiment [2] (Homo sapiens, DU-4475), 1.2 µM; in experiment [3] (Homo sapiens), 1.8 µM; in experiment [4] (Homo sapiens, HT1197, 72 h), 12 µM; in experiment [5] (Homo sapiens, A549, 72 h) it was 2.5 µM; in experiment [6], 0.0092 µM.

Consider `CC(=O)c1cnc2ccc(-c3ccc4nc[nH]c4c3)cc2c1Nc1ccc(OCCN(C)C)nc1` [Example 902, 1-(6-(1H-benzo[d]imidazol-6-yl)-4-((6-(2-(dimethylamino)ethoxy)pyridin-3-yl)amino)quinolin-3-yl) ethanone hydrochloride], for which the concentration for half-maximal inhibition (IC50) in experiment [1] (Homo sapiens, T47D, 72 h) was determined as 3.3 µM; in experiment [2] (Homo sapiens, DU-4475), 14 µM; in experiment [3] (Homo sapiens), 3.1 µM; in experiment [4] (Homo sapiens, HT1197, 72 h), 12 µM; in experiment [5] (Homo sapiens, A549, 72 h) it was 2.9 µM; in experiment [6], 0.042 µM.

In the case of `CS(=O)(=O)c1cnc2ccc(-c3cc(F)c(O)c(Cl)c3)cc2c1Nc1ccc(N2CCCC(N)C2)nc1` (stereo not drawn) [Example 909, 4-(4-(6-(3-aminopiperidin-1-yl)pyridin-3-ylamino)-3-(methylsulfonyl)quinolin-6-yl)-2-chloro-6-fluorophenol], the half-maximal inhibitory concentration (IC50) in experiment [1] (Homo sapiens, T47D, 72 h) was 0.19 µM; in experiment [2] (Homo sapiens, DU-4475), 0.042 µM; in experiment [3] (Homo sapiens), 0.44 µM; in experiment [4] (Homo sapiens, HT1197, 72 h) it was 10 µM; in experiment [5] (Homo sapiens, A549, 72 h), 2.8 µM; in experiment [6], 0.0016 µM.

On to `CN1CCC(n2cc(Nc3c(C(=O)C(C)(C)C)cnc4ccc(-c5cc(F)c(O)c(Cl)c5)cc34)cn2)CC1` [Example 930, 1-(6-(3-chloro-5-fluoro-4-hydroxy-phenyl)-4-((1-(1-methylpiperidin-4-yl)-1H-pyrazol-4-yl)amino)quinolin-3-yl)-2,2-dimethylpropan-1-one hydrochloride], for which the IC50 amounted to 1.7 µM in experiment [1] (Homo sapiens, T47D, 72 h); 1.3 µM in experiment [2] (Homo sapiens, DU-4475); 2.5 µM in experiment [3] (Homo sapiens); 14 µM in experiment [4] (Homo sapiens, HT1197, 72 h); 4.4 µM in experiment [5] (Homo sapiens, A549, 72 h); 0.017 µM in experiment [6].

Consider `CC(=O)c1cnc2ccc(-c3ccc4[nH]ncc4c3)cc2c1N[C@H]1CC[C@H](CN(C)C)CC1` [Example 910, 1-(4-((1R,4R)-4-((dimethylamino)methyl)cyclohexyl)amino)-6-(1H-indazol-5-yl)quinolin-3-yl)ethanone hydrochloride], for which the IC50 in experiment [1] (Homo sapiens, T47D, 72 h) came to 6 µM; in experiment [2] (Homo sapiens, DU-4475) it was 5.4 µM; in experiment [3] (Homo sapiens) it was 3.4 µM; in experiment [4] (Homo sapiens, HT1197, 72 h), 9.8 µM; in experiment [5] (Homo sapiens, A549, 72 h), 2.6 µM; in experiment [6], 0.1 µM.

For the compound `CCC(=O)c1cnc2ccc(-c3cc(Cl)c(O)c(Cl)c3)cc2c1Nc1ccc(N2CCC(N(C)C)C2)nc1` (stereo not drawn) [Example 863, 1-(6-(3,5-dichloro-4-hydroxyphenyl)-4-((6-(3-(dimethylamino)pyrrolidin-1-yl)pyridin-3-yl)amino)quinolin-3-yl)propan-1-one], the IC50 in experiment [1] (Homo sapiens, T47D, 72 h) turned out to be 0.44 µM; in experiment [2] (Homo sapiens, DU-4475), 0.31 µM; in experiment [3] (Homo sapiens), 0.59 µM; in experiment [4] (Homo sapiens, HT1197, 72 h), 14 µM; in experiment [5] (Homo sapiens, A549, 72 h), 0.5 µM; in experiment [6], 0.0039 µM.

In the case of `CC(=O)c1cnc2ccc(-c3cc(F)c(O)c(Cl)c3)cc2c1N[C@H]1CC[C@H](NC(=O)[C@H](C)N)CC1` (stereo in doubt) [Example 878], the IC50 was 0.027 µM in experiment [1] (Homo sapiens, T47D, 72 h); 0.03 µM in experiment [2] (Homo sapiens, DU-4475); 0.096 µM in experiment [3] (Homo sapiens); 21 µM in experiment [4] (Homo sapiens, HT1197, 72 h); 0.83 µM in experiment [5] (Homo sapiens, A549, 72 h); 0.0079 µM in experiment [6].

As to `CC(=O)c1cnc2ccc(-c3cc(F)c(O)c(Cl)c3)cc2c1Nc1cncc(CCN2CCCC2)c1` [Example 880, 1-(6-(3-chloro-5-fluoro-4-hydroxyphenyl)-4-((5-(2-(pyrrolidin-1-yl)ethyl)pyridin-3-yl)amino)quinolin-3-yl)ethanone hydrochloride], the IC50 in experiment [1] (Homo sapiens, T47D, 72 h) was found to be 3.1 µM; in experiment [2] (Homo sapiens, DU-4475), 0.96 µM; in experiment [3] (Homo sapiens), 7.4 µM; in experiment [4] (Homo sapiens, HT1197, 72 h), 46 µM; in experiment [5] (Homo sapiens, A549, 72 h) it was 1.8 µM; in experiment [6], 0.04 µM.

As to `CCC(=O)c1cnc2ccc(-c3cc(Cl)c(O)c(Cl)c3)cc2c1Nc1ccc(N2CCC[C@H](N)C2)nc1` [Example 934, (S)-1-(4-(6-(3-aminopiperidin-1-yl)pyridin-3-ylamino)-6-(3,5-dichloro-4-hydroxyphenyl)quinolin-3-yl)propan-1-one], the IC50 is 0.014 µM in experiment [1] (Homo sapiens, T47D, 72 h); 0.016 µM in experiment [2] (Homo sapiens, DU-4475); 0.02 µM in experiment [3] (Homo sapiens); 0.6 µM in experiment [4] (Homo sapiens, HT1197, 72 h); 0.034 µM in experiment [5] (Homo sapiens, A549, 72 h); 0.0012 µM in experiment [6].

For `CC(=O)c1cnc2ccc(-c3cc(F)c(O)c(Cl)c3)cc2c1N[C@H]1CC[C@H](C(=O)N(C)C)CC1` [Example 870, (1r,4r)-4-((3-acetyl-6-(3-chloro-5-fluoro-4-hydroxyphenyl)quinolin-4-yl)amino)-N,N-dimethylcyclohexanecarboxamide hydrochloride], the 50% inhibitory concentration (IC50) in experiment [1] (72 hours) came out at 0.53 µM; in experiment [2], 2.1 µM; in experiment [3], 2.3 µM; in experiment [4], 3.5 µM; in experiment [5], 1.6 µM; in experiment [6], 0.035 µM.

Take `CN1CCC(n2cc(Nc3c(S(C)(=O)=O)cnc4ccc(-c5cc(Cl)c(O)c(Cl)c5)cc34)cn2)CC1` [Example 899, 2,6-dichloro-4-(4-((1-(1-methyl-piperidin-4-yl)-1H-pyrazol-4-yl)amino)-3-(methylsulfonyl)quinolin-6-yl)phenol hydrochloride]: the IC50 in experiment [1] (Homo sapiens, T47D, 72 h) was determined as 1.6 µM; in experiment [2] (Homo sapiens, DU-4475) it was 0.26 µM; in experiment [3] (Homo sapiens), 1.5 µM; in experiment [4] (Homo sapiens, HT1197, 72 h), 10 µM; in experiment [5] (Homo sapiens, A549, 72 h), 4 µM; in experiment [6] it was 0.0017 µM.

On to `CC(=O)c1cnc2ccc(-c3cc(F)c(O)c(Cl)c3)cc2c1N[C@H]1CC[C@H](NC(=O)C2CCCN2C)CC1` (stereo partly drawn) [Example 874, N-(1R,4R)-4-((3-acetyl-6-(3-chloro-5-fluoro-4-hydroxyphenyl)quinolin-4-yl)amino)cyclohexyl)-1-methylpyrrolidine-2-carboxamide hydrochloride], for which the IC50 in experiment [1] (Homo sapiens, T47D, 72 h) amounted to 0.04 µM; in experiment [2] (Homo sapiens, DU-4475), 0.12 µM; in experiment [3] (Homo sapiens), 0.18 µM; in experiment [4] (Homo sapiens, HT1197, 72 h), 1 µM; in experiment [5] (Homo sapiens, A549, 72 h), 0.14 µM; in experiment [6] it was 0.016 µM.

Regarding `CC(=O)c1cnc2ccc(-c3ccc4nc[nH]c4c3)cc2c1Nc1ccc(N2CCN(C)CC2)nc1` [Example 901, 1-(6-(1H-benzo[d]imidazol-6-yl)-4-((6-(4-methylpiperazin-1-yl)pyridin-3-yl)amino)quinolin-3-yl)ethanone hydrochloride], the IC50 in experiment [1] (Homo sapiens, T47D, 72 h) stood at 1.2 µM; in experiment [2] (Homo sapiens, DU-4475), 9.5 µM; in experiment [3] (Homo sapiens) it was 2.1 µM; in experiment [4] (Homo sapiens, HT1197, 72 h), 9.1 µM; in experiment [5] (Homo sapiens, A549, 72 h) it was 2.3 µM; in experiment [6], 0.1 µM.

For `CC(=O)c1cnc2ccc(-c3cc(F)c(O)c(Cl)c3)cc2c1N[C@H]1CC[C@H](NC(=O)[C@@H](N)C(C)(C)C)CC1` [Example 914, (S)-N-((1r,4S)-4-((3-acetyl-6-(3-chloro-5-fluoro-4-hydroxyphenyl)quinolin-4-yl)amino)cyclohexyl)-2-amino-3,3-dimethylbutanamide hydrochloride], the half-inhibitory concentration (IC50) in experiment [1] (Homo sapiens, T47D, 72 h) is 0.075 µM; in experiment [2] (Homo sapiens, DU-4475), 0.19 µM; in experiment [3] (Homo sapiens), 0.28 µM; in experiment [4] (Homo sapiens, HT1197, 72 h), 3.6 µM; in experiment [5] (Homo sapiens, A549, 72 h) it was 0.65 µM; in experiment [6], 0.028 µM.

Take `CS(=O)(=O)c1cnc2ccc(-c3cc(F)c(O)c(Cl)c3)cc2c1N[C@H]1CC[C@H](CN2CCCC2)CC1` [Example 891, 2-chloro-6-fluoro-4-(3-(methylsulfonyl)-4-((1R,4R)-4-(pyrrolidin-1-ylmethyl)cyclohexyl)amino)quinolin-6-yl)phenol hydrochloride]: the IC50 in experiment [1] (Homo sapiens, T47D, 72 h) is 0.73 µM; in experiment [2] (Homo sapiens, DU-4475) it was 0.46 µM; in experiment [3] (Homo sapiens) it was 0.92 µM; in experiment [4] (Homo sapiens, HT1197, 72 h) it was 2.4 µM; in experiment [5] (Homo sapiens, A549, 72 h) it was 1.3 µM; in experiment [6], 0.0095 µM.

On to `CN1CCC(n2cc(Nc3c(S(C)(=O)=O)cnc4ccc(-c5cc(F)c(O)c(Cl)c5)cc34)cn2)CC1` [Example 900, 2-chloro-6-fluoro-4-(4-((1-(1-methyl-piperidin-4-yl)-1H-pyrazol-4-yl)amino)-3-(methylsulfonyl)quinolin-6-yl)phenol hydrochloride], for which the 50% inhibitory concentration (IC50) came to 1.6 µM in experiment [1] (Homo sapiens, T47D, 72 h); 0.54 µM in experiment [2] (Homo sapiens, DU-4475); 3.1 µM in experiment [3] (Homo sapiens); 10 µM in experiment [4] (Homo sapiens, HT1197, 72 h); 10 µM in experiment [5] (Homo sapiens, A549, 72 h); 0.0032 µM in experiment [6].

As for `CC(=O)c1cnc2ccc(-c3cc(Cl)c(O)c(Cl)c3)cc2c1Nc1cc(CCN2CCCC2)cnc1C` [Example 897, 1-(6-(3,5-dichloro-4-hydroxyphenyl)-4-((2-methyl-5-(2-(pyrrolidin-1-yl)ethyl)pyridin-3-yl)amino)quinolin-3-yl)ethanone], the IC50 was 4.5 µM in experiment [1] (Homo sapiens, T47D, 72 h); 8.8 µM in experiment [2] (Homo sapiens, DU-4475); 11 µM in experiment [3] (Homo sapiens); 71 µM in experiment [4] (Homo sapiens, HT1197, 72 h); 8.5 µM in experiment [5] (Homo sapiens, A549, 72 h); 0.021 µM in experiment [6].
